{
  "source": "ChEMBL document CHEMBL1156400",
  "about": "“Cedronolactone E, a novel C(19) quassinoid from Simaba cedron” (J Nat Prod, 2001)",
  "test_system": "P388",
  "test": "Cytotoxicity against mouse P388 cells",
  "type": "functional, cell-based",
  "data": [
    {"smiles": "C[C@@H]1[C@@H]2[C@@H](O)C(=O)O[C@@H]3C[C@@]4(C)C(=C(O[C@@]5(C)CC(=O)O[C@@H]45)[C@@H]1O)[C@]23CO", "note": "[CEDRONOLACTONE E]", "values": [
      {"measurement": "IC50", "result": 51, "unit": "µg/mL"}
    ]}
  ]
}
